# Biological target: GST-hRIPK1 (8-327) (Homo sapiens (Human), UniProt Q13546)
# Test: Fluorescent Polarization Binding (FP Binding) assay, RIPK1
# Details: 10 nM GST-hRIPK1 (8-327), 5 nM fluorescent-labeled ligand, RT, 30 min, mean of at least two independent experiments
# Outline: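 Binding by fluorescence polarisation at RT: 10 nM baculovirus-expressed GST-hRIPK1 (8-327) and 5 nM fluorescent ligand, 30 min, in 50 mM HEPES pH 7.5, 50 mM MgCl2, 0.02% CHAPS, 1% DMSO. FP read at ex 531/em 595 nm. IC50 from normalised percent inhibition, mean of ≥2 experiments.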
# Chain of GST-hRIPK1 (8-327) (Q13546 8-327): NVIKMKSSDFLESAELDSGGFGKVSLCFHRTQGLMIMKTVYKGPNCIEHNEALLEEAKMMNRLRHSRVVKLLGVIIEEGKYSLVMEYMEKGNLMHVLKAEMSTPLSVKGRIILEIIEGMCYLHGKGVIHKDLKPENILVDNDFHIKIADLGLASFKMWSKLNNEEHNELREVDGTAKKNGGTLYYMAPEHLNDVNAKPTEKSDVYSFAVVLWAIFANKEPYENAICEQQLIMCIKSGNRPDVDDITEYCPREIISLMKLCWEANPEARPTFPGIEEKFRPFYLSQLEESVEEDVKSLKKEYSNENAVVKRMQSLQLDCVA
row,SMILES,IC50 [nM]
1,"CC1CN(C(=O)C(C)(C)C(F)F)Cc2ccccc2O1 (centres unmarked) [Example 36, 3,3-difluoro-2,2-dimethyl-1-(2-methyl-2,3-dihydrobenzo[f][1,4]oxazepin-4(5H)-yl)propan-1-one]",> 1000
2,"CC(C)(C(=O)N1CCOc2c(C#N)cccc2C1)C1CC1 [Example 26, 4-(2-cyclopropyl-2-methyl-propanoyl)-3,5-dihydro-2H-1,4-benzoxazepine-9-carbonitrile]",0.1 to 100
3,"N#Cc1cncc2c1OCCN(C(=O)C1(F)CCN(c3ncc4c(n3)COC4)CC1)C2 [Example 165, 4-[1-(5,7-dihydrofuro[3,4-d]pyrimidin-2-yl)-4-fluoro-piperidine-4-carbonyl]-3,5-dihydro-2H-pyrido[3,4-f][1,4]oxazepine-9-carbonitrile]",100 to 1000
4,"COc1ccc(N2CCC(F)(C(=O)N3CCOc4c(C#N)cncc4C3)CC2)nn1 [Example 115, 4-[4-fluoro-1-(6-methoxypyridazin-3-yl)piperidine-4-carbonyl]-3,5-dihydro-2H-pyrido[3,4-f][1,4]oxazepine-9-carbonitrile]",100 to 1000
5,"O=C(C1CCN(c2ncc(F)cn2)CC1)N1Cc2ccccc2CCO1 [Example 39, 2-[1-(5-fluoropyrimidin-2-yl)piperidine-4-carbonyl]-1,2,4,5-tetrahydro-3,2-benzoxazepine]",100 to 1000
6,"N#Cc1cncc2c1OCCN(C(=O)C1(F)CCN(c3ncc(F)cn3)C1)C2 (centres unmarked) [Example 176, 4-[3-fluoro-1-(5-fluoropyrimidin-2-yl)pyrrolidine-3-carbonyl]-3,5-dihydro-2H-pyrido[3,4-f][1,4]oxazepine-9-carbonitrile]",> 1000
7,"CC(C)(C(=O)N1CCOc2c(C#N)cncc2C1)C(F)(F)F [Example 45, 4-(3,3,3-trifluoro-2,2-dimethyl-propanoyl)-3,5-dihydro-2H-pyrido[3,4-f][1,4]oxazepine-9-carbonitrile]",0.1 to 100
8,"N#Cc1cncc2c1OCCN(C(=O)C1CCN(c3ncc(F)c(OCC(F)F)n3)CC1)C2 [Example 131, 4-(1-(4-(2,2-difluoroethoxy)-5-fluoropyrimidin-2-yl)piperidine-4-carbonyl)-2,3,4,5-tetrahydropyrido[3,4-f][1,4]oxazepine-9-carbonitrile]",0.1 to 100
9,"C[C@@H]1COc2c(C#N)cncc2CN1C(=O)C(C)(C)C(F)F [Example 52, (3R)-4-(3,3-difluoro-2,2-dimethyl-propanoyl)-3-methyl-3,5-dihydro-2H-pyrido[3,4-f][1,4]oxazepine-9-carbonitrile]",0.1 to 100
10,"N#Cc1cnc(N2CCC(F)(C(=O)N3CCOc4c(F)cncc4C3)CC2)nc1 [Example 159, 2-[4-fluoro-4-(9-fluoro-3,5-dihydro-2H-pyrido[3,4-f][1,4]oxazepine-4-carbonyl)-1-piperidyl]pyrimidine-5-carbonitrile]",100 to 1000
11,"N#Cc1cncc2c1OCCN(C(=O)C1(F)CCN(c3cnccn3)CC1)C2 [Example 87, 4-(4-fluoro-1-pyrazin-2-yl-piperidine-4-carbonyl)-3,5-dihydro-2H-pyrido[3,4-f][1,4]oxazepine-9-carbonitrile]",100 to 1000
12,"CC(C)(C(=O)N1CCOc2c(C#N)cncc2C1)C1CCN(c2ncc(F)cn2)C1 (centres unmarked) [Example 90, 4-[2-[1-(5-fluoropyrimidin-2-yl)pyrrolidin-3-yl]-2-methyl-propanoyl]-3,5-dihydro-2H-pyrido[3,4-f][1,4]oxazepine-9-carbonitrile]",0.1 to 100
13,"N#Cc1cncc2c1OCCN(C(=O)C1(Cl)CCN(c3ncc(F)cn3)CC1)C2 [Example 177, 4-[4-chloro-1-(5-fluoropyrimidin-2-yl)piperidine-4-carbonyl]-3,5-dihydro-2H-pyrido[3,4-f][1,4]oxazepine-9-carbonitrile]",0.1 to 100
14,"CC(C#N)C(C)(C)C(=O)N1CCOc2c(F)cncc2C1 (centres unmarked) [Example 71, 4-(9-fluoro-2,3-dihydropyrido[3,4-f][1,4]oxazepin-4(5H)-yl)-2,3,3-trimethyl-4-oxobutanenitrile]",> 1000
15,"N#Cc1cncc2c1OCCN(C(=O)C1(F)CCN(c3ncc4c(n3)CCC4)CC1)C2 [Example 111, 4-[1-(6,7-dihydro-5H-cyclopenta[d]pyrimidin-2-yl)-4-fluoro-piperidine-4-carbonyl]-3,5-dihydro-2H-pyrido[3,4-f][1,4]oxazepine-9-carbonitrile]",100 to 1000
16,"Cn1cnc2cnc(N3CCC(F)(C(=O)N4CCOc5c(C#N)cncc5C4)CC3)nc21 [Example 169, 4-[4-fluoro-1-(9-methylpurin-2-yl)piperidine-4-carbonyl]-3,5-dihydro-2H-pyrido[3,4-f][1,4]oxazepine-9-carbonitrile]",100 to 1000
17,"CC(C)(C(=O)N1CCOc2cccc(C#N)c2C1)C(F)F [Example 27, 4-(3,3-difluoro-2,2-dimethyl-propanoyl)-3,5-dihydro-2H-1,4-benzoxazepine-6-carbonitrile]",> 1000

# Same assay, conditions: GST-hRIPK1 (8-327), mean of at least two independent experiments
row,SMILES,IC50 [nM]
1,"O=C(C1CCN(c2ncnc(OCC(F)F)n2)CC1)N1CCOc2c(F)cncc2C1 [Example 210, [1-[4-(2,2-difluoroethoxy)-1,3,5-triazin-2-yl]-4-piperidyl]-(9-fluoro-3,5-dihydro-2H-pyrido[3,4-f][1,4]oxazepin-4-yl)methanone]",100 to 1000
2,"N#Cc1cncc2c1OCCN(C(=O)C1(F)CCN(c3ncc(F)cn3)CC1(F)F)C2 (single isomer, unassigned) [Example 296, 4-[3,3,4-Trifluoro-1-(5-fluoropyrimidin-2-yl)piperidine-4-carbonyl]-3,5-dihydro-2H-pyrido[3,4-f][1,4]oxazepine-9-carbonitrile]",0.1 to 100
3,"CC(C)(C(=O)N1CCOc2c(C#N)cncc2C1)[C@H]1C[C@H](Cn2ccnn2)C1 [Example 292, trans-4-[2-methyl-2-[3-(triazol-1-ylmethyl)cyclobutyl]propanoyl]-3,5-dihydro-2H-pyrido [3,4-f][1,4]oxazepine-9-carbonitrile]",> 1000
4,"CC(F)C(C)(C)C(=O)N1CCOc2c(C#N)cncc2C1 (single isomer, unassigned) [Example 273, 4-(3-Fluoro-2,2-dimethyl-butanoyl)-3,5-dihydro-2H-pyrido[3,4-f][1,4]oxazepine-9-carbonitrile]",100 to 1000
5,O=C(C1CCN(c2nccc3ncnn23)C[C@@H]1F)N1CCOc2c(F)cncc2C1 (some centres unmarked) [Example 255],100 to 1000
6,"N#Cc1cncc2c1OCCN(C(=O)C1=CCN(c3ncc(F)cn3)CC1)C2 [Example 245, 4-[1-(5-fluoropyrimidin-2-yl)-3,6-dihydro-2H-pyridine-4-carbonyl]-3,5-dihydro-2H-pyrido[3,4-f][1,4]oxazepine-9-carbonitrile]",100 to 1000
7,"CC(CF)(C(=O)N1CCOc2c(C#N)cncc2C1)C(F)F (centres unmarked) [Example 266, 4-[3,3-Difluoro-2-(fluoromethyl)-2-methyl-propanoyl]-3,5-dihydro-2H-pyrido[3,4-f][1,4]oxazepine-9-carbonitrile]",100 to 1000
8,"N#Cc1cncc2c1OCCN(C(=O)C1CCN(c3ccnc4c(F)cnn34)CC1F)C2 (single isomer, unassigned) [Example 303, 4-[3-Fluoro-1-(3-fluoropyrazolo[1,5-a]pyrimidin-7-yl)piperidine-4-carbonyl]-3,5-dihydro-2H-pyrido[3,4-f][1,4]oxazepine-9-carbonitrile]",100 to 1000
9,"COc1nc(N2CCC(C(=O)N3CCCc4ccccc4C3)CC2)ncc1F [Example 237, [1-(5-fluoro-4-methoxy-pyrimidin-2-yl)-4-piperidyl]-(1,3,4,5-tetrahydro-2-benzazepin-2-yl)methanone]",0.1 to 100

# Source: patent publication US11203600B2 (Denali Therapeutics Inc., priority 2017, dated 2021)
